# pIC50, pKi: −log10 of the molar value.
# Tests used:
# Assay type in all cases: cell-based
# [1] = molecular target: T1, human Nav1.7 (hSCN9A) (Homo sapiens, UniProt Q15858); assay: Electrophysiology assay for Navs, whole cell patch clamp, human Nav1.7 (hSCN9A) expressing CHO cells; conditions: Kinact, read-out: activity (Ki) against Nav1.7, dissociation constant for the inactivated state
# T1 construct: expressed in transfected cells; host or cells: CHO
# Method: Electrophysiology Assay for Navs
# Whole cell patch clamp recording is used to assess the efficacy or selectivity of Na channel blocker on human Nav1.3 (hSCN3A) expressing HEK293 cells or human Nv1.7 (hSCN9A) expressing CHO cells. Human Nav1.3 expressing HEK293 cells are grown in growth media which contain: Dulbecco's […] (DMEM), 10% heat-inactivated fetal bovine serum (FBS) (Hyclone Laboratories Inc), 100 microgram/mL Penicillin/100 U/mL Streptomycin, 150 microgram/mL Zeocin, 3 microgram/mL Geneticin. Human Nav1.7 expressing CHO cells are grown in growth media which comprised: HAM/F-12, 9% heat-inactivated FBS (Hyclone Laboratories Inc) and 100 microgram/mL Penicillin/100 U/mL Streptomycin, 100 microgram/mL Hygromycin.
# Na channel expressing cells are dissociated by 0.05% trypsine-EDTA, and then seeded on cover glass for 24 to 48 hr. […]
# The normalized steady-state inactivation curve is constructed using 2 sec (for vehicle) or 60 sec (for drugs) conditioning pulse to different potentials followed immediately by the test pulse to −10 mV. […] The affinity of drugs to resting state of Na channels (Kresting or Kr) is assessed by 30 msec test pulse from a negative holding potential of −120 or −130 mV, where virtually all channels are in the resting state. Kr value is calculated by a conventional 1:1 binding model: Kresting(Kr)={[drug]Imax,drug/(Imax,control−Imax,drug)} […]
# [2] = molecular target: T2, human Nav1.5 (Homo sapiens, UniProt Q14524); assay: FRET assay, human Nav1.5 channels (HEK293, EFS on FDSS); conditions: read-out: activity (IC50) against Nav1.5
# T2 construct: expressed in transfected cells; host or cells: HEK293
# Method: (§1) The ability of the amide derivatives of the formula (I) to inhibit the Nav1.3, Nav1.7 and Nav1.5 channels is measured by Fluorescence Resonance Energy Transfer (FRET) assay and electrophysiology assay described below.
# (§2) This screen is used to determine the effects of compounds on human Nav1.3, human Nav1.7, and human Nav1.5 channels, utilizing electrical field stimulation (EFS) system in 96-well plate format on FDSS (Hamamatsu Photonics) platform. The change of membrane potential is monitored with FRET dye pair, oxonol (DiSBAC2(3)) and coumarin (CC2-DMPE).
# (§3) Each HEK293 cells expressing human Nav1.3 channels and HEK293 cells expressing human Nav1.5 channels are grown in T225 flasks, in a 5% CO2 humidified incubator to about 80% confluence. Media composition consists of Dulbecco's Modified Eagle Medium (high glucose), 10% FCS, 100 units/mL Penicillin, 100 microgram/mL Streptomycin and 500 microgram/mL Geneticin™. […]
# (§4) The data are analyzed and reported as normalized ratios of intensities measured at […]. […]
# (§5) This analysis is performed using a computerized specific program designed for FDSS generated data. Fluorescence ratio values are plotted using XLfit™ to determine an IC50 value for each compound.
# [3] = molecular target: T3, human Nav1.3 (Homo sapiens, UniProt Q9NY46); assay: FRET assay, human Nav1.3 channels (HEK293, EFS on FDSS); conditions: read-out: activity (IC50) against Nav1.3
# T3 construct: expressed in transfected cells; host or cells: HEK293
# Method: as §1, §2, §3, §4, §5
# [4] = molecular target: T4, human Nav1.7 (Homo sapiens, UniProt Q15858); assay: FRET assay, human Nav1.7 channels (CHO, EFS on FDSS); conditions: read-out: activity (IC50) against Nav1.7
# T4 construct: expressed in transfected cells; host or cells: CHO
# Method: as §1, §2
# CHO cells expressing human Nav1.7 channels are grown in T225 flasks, in a 5% CO2 humidified incubator to about 80% confluence. Media composition consists of HAM/F12 with Glutamax I, 10% FCS, 100 units/mL Penicillin and 100 microgram/mL Hygromycin. […]
# as §4, §5
# T4 sequence (Q15858 whole entry): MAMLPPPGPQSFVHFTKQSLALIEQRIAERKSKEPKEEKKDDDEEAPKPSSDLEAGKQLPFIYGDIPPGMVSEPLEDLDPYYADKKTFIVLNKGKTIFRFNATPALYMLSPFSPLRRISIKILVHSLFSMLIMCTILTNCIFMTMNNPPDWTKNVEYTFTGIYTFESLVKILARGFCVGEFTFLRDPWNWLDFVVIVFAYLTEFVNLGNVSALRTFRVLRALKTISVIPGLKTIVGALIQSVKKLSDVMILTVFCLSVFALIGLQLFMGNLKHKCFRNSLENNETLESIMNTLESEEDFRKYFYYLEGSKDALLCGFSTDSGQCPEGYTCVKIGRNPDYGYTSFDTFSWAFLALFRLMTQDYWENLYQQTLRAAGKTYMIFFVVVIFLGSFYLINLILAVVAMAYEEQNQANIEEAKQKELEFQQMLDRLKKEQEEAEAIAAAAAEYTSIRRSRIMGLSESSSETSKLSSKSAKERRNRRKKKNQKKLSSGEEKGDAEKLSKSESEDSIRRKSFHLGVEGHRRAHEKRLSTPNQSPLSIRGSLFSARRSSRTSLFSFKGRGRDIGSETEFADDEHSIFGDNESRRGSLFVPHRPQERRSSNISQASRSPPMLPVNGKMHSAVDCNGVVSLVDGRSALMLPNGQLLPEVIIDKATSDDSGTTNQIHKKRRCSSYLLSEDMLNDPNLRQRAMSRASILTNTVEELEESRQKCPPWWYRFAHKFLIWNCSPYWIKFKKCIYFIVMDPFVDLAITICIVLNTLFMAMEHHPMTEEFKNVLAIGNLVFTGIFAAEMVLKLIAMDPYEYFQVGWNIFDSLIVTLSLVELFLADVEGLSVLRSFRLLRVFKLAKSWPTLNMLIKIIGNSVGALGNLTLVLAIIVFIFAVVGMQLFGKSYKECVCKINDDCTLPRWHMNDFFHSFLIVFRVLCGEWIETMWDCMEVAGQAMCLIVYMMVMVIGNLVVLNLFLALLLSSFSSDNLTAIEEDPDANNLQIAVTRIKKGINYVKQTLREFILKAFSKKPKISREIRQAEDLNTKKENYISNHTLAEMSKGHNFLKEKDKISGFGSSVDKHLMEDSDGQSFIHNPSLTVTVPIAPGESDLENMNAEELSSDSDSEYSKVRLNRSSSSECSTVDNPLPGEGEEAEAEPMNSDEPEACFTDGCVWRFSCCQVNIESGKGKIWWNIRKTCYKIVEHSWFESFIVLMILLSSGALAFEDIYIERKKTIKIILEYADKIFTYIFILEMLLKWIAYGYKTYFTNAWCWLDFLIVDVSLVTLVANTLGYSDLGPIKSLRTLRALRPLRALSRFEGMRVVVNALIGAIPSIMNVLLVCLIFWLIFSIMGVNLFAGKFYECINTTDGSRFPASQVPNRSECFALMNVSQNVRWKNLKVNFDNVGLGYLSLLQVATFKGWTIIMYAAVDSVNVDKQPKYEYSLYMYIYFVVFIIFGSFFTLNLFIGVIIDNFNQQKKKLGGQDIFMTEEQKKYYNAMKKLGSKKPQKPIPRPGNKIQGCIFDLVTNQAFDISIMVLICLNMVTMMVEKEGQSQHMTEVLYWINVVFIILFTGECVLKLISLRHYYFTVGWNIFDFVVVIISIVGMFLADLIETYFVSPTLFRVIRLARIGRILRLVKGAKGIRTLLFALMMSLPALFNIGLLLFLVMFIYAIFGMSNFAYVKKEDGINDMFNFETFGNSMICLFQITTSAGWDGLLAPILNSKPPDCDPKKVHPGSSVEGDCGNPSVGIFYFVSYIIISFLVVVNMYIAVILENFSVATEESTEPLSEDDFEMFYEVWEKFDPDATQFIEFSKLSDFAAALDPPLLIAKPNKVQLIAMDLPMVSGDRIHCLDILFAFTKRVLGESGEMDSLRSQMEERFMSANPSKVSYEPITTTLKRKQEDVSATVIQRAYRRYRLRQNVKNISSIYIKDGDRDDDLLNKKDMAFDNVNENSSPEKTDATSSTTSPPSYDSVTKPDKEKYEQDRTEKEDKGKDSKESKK
# T1 sequence (Q15858 whole entry): as above
# T2 sequence (Q14524 whole entry): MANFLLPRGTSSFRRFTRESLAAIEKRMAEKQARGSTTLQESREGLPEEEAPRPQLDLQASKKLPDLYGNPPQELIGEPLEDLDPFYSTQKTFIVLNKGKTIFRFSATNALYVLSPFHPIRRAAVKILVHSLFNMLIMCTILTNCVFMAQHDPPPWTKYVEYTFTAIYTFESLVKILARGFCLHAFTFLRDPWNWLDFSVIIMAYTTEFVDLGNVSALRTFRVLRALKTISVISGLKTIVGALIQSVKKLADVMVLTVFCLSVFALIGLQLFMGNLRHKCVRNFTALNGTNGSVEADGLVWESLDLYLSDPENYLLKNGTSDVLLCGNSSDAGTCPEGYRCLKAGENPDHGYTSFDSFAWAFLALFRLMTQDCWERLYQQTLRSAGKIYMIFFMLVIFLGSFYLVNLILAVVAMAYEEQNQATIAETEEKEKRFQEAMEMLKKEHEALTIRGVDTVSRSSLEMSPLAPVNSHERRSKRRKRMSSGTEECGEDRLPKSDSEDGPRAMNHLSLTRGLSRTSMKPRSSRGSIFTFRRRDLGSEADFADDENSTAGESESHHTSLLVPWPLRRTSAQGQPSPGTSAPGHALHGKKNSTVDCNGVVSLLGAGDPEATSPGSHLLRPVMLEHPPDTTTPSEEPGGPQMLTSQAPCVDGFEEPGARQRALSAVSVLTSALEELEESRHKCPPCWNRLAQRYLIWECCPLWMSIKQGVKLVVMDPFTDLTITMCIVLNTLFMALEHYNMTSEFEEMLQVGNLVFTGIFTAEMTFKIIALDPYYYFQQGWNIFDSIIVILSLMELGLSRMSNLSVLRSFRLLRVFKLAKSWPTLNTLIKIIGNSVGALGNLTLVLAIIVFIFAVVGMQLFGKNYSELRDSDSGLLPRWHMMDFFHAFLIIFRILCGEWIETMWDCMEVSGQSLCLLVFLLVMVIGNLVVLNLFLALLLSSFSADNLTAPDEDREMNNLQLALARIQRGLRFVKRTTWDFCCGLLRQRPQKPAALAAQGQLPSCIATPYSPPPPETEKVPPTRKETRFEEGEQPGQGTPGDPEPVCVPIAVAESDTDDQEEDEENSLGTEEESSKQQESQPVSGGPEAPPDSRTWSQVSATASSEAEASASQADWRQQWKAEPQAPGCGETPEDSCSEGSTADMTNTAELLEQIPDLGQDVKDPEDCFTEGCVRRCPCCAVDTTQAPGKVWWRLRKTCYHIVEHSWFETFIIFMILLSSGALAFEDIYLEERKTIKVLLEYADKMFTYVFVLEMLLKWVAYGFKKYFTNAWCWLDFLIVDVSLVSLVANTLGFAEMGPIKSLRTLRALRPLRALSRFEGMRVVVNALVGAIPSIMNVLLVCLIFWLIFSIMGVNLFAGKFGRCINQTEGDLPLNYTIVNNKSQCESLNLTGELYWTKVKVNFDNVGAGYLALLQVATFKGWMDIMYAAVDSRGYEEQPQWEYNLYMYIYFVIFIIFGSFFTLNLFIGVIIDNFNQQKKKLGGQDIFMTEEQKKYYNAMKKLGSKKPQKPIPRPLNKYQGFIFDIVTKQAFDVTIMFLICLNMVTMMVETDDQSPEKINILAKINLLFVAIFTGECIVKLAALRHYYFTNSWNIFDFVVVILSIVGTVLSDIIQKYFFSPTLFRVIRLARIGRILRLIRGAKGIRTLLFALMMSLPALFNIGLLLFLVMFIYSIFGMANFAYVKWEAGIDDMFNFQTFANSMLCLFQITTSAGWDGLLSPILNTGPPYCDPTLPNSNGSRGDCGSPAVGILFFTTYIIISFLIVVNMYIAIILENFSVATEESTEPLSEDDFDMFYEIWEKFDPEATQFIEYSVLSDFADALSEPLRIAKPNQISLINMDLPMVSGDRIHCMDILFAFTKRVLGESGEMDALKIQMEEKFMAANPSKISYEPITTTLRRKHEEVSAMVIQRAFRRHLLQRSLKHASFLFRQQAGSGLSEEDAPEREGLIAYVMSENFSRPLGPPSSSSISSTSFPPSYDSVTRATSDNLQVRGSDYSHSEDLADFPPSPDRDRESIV
pKi [1],pIC50 [3],pIC50 [4],SMILES,pIC50 [2]
6.02,,,"CC(=O)Nc1cc(C(C)NC(=O)c2ccc(OCC(F)(F)F)cn2)cc(C)n1 (single isomer, unassigned) [Example 29, N-(1-(2-acetamido-6-methylpyridin-4-yl)ethyl)-5-(2,2,2-trifluoroethoxy) picolinamide]",
,6.29,6.00,"CCC(=O)Nc1cc(CNC(=O)c2ccc(OCC(F)(F)F)nc2)cc(C)n1 [Example 12, N-((2-methyl-6-propionamidopyridin-4-yl)methyl)-6-(2,2,2-trifluoroethoxy) nicotinamide]",< 4.52

# — patent US9701658B2, “Amide derivatives as TTX-S blockers” (RaQualia Pharma Inc., priority 2012, dated 2017)
